Values belong to the compound of their own block, whether it stands above or below them. Active and inactive are the calls of the source.
How the values were obtained:
[1] = intracellular Trypanosoma cruzi inhibitors in host cells – cell-based, plate reader, cherry-pick samples, set 3, dose response (AID 651818); format: functional;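 note: compounds incubated with infected cells for about four days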
[2] = biological target: Dual specificity tyrosine-phosphorylation-regulated kinase 1A (Rattus norvegicus, UniProt Q63470); format: biochemical, Homo sapiens
Steroidogenic factor 1 = Steroidogenic factor 1 (Homo sapiens, UniProt Q13285); assay: Counterscreen for inverse agonists of the liver receptor homolog-1 (LRH-1; NR5A2): Luminescence-based cell-based high throughput dose response assay to identify inverse agonists of the Steroidogenic Factor 1 Nuclear Receptor (SF1; NR5A1).; format: functional
Steroidogenic factor 1, sequence (Q13285 whole entry): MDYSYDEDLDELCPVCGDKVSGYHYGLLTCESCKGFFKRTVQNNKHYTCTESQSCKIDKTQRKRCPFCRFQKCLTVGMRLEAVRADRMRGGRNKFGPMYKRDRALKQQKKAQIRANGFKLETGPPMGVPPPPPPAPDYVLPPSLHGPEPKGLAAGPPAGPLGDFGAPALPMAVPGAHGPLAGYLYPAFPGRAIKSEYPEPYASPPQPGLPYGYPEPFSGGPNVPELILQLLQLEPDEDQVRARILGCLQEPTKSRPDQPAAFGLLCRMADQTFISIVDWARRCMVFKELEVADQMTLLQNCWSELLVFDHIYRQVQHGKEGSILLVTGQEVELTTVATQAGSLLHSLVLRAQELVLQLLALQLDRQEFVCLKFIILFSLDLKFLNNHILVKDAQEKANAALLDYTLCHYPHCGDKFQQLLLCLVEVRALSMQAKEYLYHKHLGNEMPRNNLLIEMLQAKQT

[3] = nonselective StAR promoter luciferase inhibitors – cell-based, luminescence, luciferase reporter, counter-screen for LRH-1 inverse agonist project, dose response (AID 651969); format: functional
[4] = biological target: Nuclear receptor subfamily 5 group A member 2 (Homo sapiens, UniProt O00482); format: functional, cell-based;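 note: HEK293T cells transfected with LRH-1 and a StAR promoter luciferase reporter; potency for inhibitors that lower LRH-1 driven reporter light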
Nuclear receptor subfamily 5 group A member 2, sequence (O00482 whole entry): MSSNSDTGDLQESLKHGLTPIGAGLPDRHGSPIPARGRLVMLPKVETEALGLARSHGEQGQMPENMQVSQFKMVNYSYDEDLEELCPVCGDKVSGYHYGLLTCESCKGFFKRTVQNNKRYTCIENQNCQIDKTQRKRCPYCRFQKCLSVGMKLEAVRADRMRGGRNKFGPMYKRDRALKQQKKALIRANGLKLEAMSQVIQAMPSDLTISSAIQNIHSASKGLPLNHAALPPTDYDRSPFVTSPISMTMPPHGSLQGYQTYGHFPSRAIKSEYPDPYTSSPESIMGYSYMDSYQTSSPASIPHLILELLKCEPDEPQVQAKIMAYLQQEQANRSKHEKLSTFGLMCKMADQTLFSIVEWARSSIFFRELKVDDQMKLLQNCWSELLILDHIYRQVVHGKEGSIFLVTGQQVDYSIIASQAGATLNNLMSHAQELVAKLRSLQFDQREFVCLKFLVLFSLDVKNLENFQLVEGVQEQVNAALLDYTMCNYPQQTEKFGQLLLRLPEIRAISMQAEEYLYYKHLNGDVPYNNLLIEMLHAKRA

[5] = fluconazole-exposed Candida albicans growth modulators – fluorescence, retest, confirmation (AID 2467); format: functional, cell-based
[6] = NIH-3T3 fibroblast cytotoxicity, dose response, cytotoxicity control, cell-based, fluorescence, Alamar Blue, secondary assay (AID 2327); format: functional;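 note: NIH-3T3 mouse fibroblasts cultured with fluconazole at 8 µg/mL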
[7] = biological target: T1, Low molecular weight phosphotyrosine protein phosphatase (Homo sapiens, UniProt P24666); format: functional; settings: read-out: IC50_Mean;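 note: Dose-response confirmation assay measuring inhibition of LMPTP enzyme activity by fluorescence intensity read-out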
T1 sequence (P24666 whole entry): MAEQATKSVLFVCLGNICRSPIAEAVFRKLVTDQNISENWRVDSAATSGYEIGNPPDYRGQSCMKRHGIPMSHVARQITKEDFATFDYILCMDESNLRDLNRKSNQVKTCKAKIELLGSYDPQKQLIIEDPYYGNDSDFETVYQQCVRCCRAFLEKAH

Large T antigen = Large T antigen (Simian virus 40, UniProt P03070); format: functional, Betapolyomavirus macacae;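 note: Confirmatory-stage PubChem screen for compounds that inhibit SV40 T antigen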
Large T antigen, sequence (P03070 whole entry): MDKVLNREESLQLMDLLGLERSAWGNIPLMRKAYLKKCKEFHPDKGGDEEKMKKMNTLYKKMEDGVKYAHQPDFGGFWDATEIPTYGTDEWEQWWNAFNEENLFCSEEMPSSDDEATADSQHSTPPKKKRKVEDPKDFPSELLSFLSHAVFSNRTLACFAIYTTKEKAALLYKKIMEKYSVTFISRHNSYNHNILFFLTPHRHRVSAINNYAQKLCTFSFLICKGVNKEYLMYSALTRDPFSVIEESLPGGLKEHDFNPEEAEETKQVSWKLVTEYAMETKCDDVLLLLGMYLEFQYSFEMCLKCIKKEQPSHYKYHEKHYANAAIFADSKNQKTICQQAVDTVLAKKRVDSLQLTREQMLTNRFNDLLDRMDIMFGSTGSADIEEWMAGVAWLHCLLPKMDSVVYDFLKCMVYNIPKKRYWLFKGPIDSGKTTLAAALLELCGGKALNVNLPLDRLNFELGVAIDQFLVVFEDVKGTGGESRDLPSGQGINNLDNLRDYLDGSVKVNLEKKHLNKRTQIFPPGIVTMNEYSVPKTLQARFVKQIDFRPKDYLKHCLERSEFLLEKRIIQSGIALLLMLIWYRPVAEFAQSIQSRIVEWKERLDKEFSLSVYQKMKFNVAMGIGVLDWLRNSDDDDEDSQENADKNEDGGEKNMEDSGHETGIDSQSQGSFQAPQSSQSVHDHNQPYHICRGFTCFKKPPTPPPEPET

[8] = biological target: T2, Zinc finger protein mex-5 (Caenorhabditis elegans, UniProt Q9XUB2); assay: potency of MEX-5 RNA-binding blockers – biochemical, C. elegans, fluorescence polarization, dose response (AID 1960)
T2 sequence (Q9XUB2 whole entry): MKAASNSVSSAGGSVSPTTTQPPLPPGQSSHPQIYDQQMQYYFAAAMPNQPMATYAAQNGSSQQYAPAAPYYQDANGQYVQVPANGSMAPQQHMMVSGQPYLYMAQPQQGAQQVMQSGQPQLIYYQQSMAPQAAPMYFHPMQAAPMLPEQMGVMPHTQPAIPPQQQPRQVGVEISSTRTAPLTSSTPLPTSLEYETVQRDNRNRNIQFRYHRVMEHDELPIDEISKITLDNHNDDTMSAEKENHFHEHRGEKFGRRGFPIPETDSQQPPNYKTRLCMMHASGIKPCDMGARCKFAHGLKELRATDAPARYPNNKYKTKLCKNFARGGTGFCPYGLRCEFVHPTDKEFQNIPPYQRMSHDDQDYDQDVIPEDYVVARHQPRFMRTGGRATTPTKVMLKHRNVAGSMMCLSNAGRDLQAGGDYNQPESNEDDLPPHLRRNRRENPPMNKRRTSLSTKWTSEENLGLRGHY

[9] = biological target: T3, RNA-binding protein pos-1 (Caenorhabditis elegans, UniProt G5EF15); assay: disruptors of C. elegans POS-1 RNA interaction – biochemical, fluorescence polarization, dose response (AID 1964);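 note: purified POS-1 fused to maltose binding protein made in E. coli; potency of compounds blocking POS-1 binding to fluorescent RNA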
T3 sequence (G5EF15 whole entry): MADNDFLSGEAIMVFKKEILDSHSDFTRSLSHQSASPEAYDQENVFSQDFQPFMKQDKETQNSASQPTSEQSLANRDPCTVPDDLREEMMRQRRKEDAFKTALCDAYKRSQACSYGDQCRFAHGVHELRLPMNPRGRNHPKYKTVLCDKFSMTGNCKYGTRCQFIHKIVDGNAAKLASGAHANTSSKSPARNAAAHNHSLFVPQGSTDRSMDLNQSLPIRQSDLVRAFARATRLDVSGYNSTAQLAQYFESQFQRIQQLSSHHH

[10] = biological target: Glucose-6-phosphate 1-dehydrogenase (Homo sapiens, UniProt P11413); assay: inhibition of Homo sapiens G6PD, dose series – biochemical, fluorescence, selectivity assay for P. falciparum G6PD inhibitor project, dose response (AID 504792); format: functional
Glucose-6-phosphate 1-dehydrogenase, sequence (P11413 whole entry): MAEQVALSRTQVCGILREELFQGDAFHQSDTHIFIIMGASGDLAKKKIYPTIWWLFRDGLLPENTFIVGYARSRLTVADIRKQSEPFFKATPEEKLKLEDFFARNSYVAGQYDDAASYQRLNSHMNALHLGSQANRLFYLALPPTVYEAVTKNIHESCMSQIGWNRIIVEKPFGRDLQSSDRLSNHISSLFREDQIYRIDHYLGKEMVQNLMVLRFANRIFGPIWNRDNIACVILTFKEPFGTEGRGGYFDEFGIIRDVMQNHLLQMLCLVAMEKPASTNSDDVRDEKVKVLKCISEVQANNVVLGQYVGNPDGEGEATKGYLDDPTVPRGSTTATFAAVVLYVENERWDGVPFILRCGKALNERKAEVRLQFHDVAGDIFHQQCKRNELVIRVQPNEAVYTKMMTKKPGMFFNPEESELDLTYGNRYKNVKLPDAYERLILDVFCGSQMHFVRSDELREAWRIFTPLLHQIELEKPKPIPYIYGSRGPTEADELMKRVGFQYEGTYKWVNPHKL

[11] = biological target: T4, Short transient receptor potential channel 4 (Mus musculus, UniProt Q9QUQ5); assay: block of DAMGO-driven TRPC4 calcium entry – cell-based, HEK293 TRPC4/mu-opioid, Fluo-4 calcium, dose response (AID 434942); format: functional;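 note: potency of inhibitors blocking the TRPC4 calcium response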
T4 sequence (Q9QUQ5 whole entry): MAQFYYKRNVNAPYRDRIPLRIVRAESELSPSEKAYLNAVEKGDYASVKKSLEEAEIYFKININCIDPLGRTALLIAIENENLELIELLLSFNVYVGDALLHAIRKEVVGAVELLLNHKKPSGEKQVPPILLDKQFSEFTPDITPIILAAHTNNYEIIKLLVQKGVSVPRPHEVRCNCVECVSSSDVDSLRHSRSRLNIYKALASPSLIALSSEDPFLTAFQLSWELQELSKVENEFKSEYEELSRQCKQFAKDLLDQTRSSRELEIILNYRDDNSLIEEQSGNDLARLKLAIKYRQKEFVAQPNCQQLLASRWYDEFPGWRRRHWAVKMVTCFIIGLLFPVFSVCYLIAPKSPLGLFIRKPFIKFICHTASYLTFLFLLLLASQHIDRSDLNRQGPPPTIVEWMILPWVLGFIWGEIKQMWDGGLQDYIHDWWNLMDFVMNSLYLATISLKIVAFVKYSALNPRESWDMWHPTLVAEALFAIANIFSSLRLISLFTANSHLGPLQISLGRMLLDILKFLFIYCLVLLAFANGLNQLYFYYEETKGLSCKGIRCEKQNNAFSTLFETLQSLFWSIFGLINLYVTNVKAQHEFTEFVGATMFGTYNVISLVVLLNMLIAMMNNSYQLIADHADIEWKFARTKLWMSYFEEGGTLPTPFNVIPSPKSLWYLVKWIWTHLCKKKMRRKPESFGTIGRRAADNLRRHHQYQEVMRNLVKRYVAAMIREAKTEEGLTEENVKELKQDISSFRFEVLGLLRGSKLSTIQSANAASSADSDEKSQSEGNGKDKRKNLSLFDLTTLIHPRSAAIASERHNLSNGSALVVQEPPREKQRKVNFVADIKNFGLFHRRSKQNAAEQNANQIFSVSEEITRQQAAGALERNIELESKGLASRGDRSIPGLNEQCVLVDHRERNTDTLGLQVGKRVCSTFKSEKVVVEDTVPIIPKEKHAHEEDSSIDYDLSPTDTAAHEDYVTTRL

Fatty acid synthase [12] = biological target: T5, Fatty acid synthase (Homo sapiens, UniProt P49327); assay: inhibition of human FAS-TE enzyme activity – biochemical, kinetic fluorescence intensity, dose response (AID 624326); format: functional;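 note: rate of fluorescence rise from hydrolysis of a fluorogenic O-methyl fluorescein ester substrate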
T5 sequence (P49327 whole entry): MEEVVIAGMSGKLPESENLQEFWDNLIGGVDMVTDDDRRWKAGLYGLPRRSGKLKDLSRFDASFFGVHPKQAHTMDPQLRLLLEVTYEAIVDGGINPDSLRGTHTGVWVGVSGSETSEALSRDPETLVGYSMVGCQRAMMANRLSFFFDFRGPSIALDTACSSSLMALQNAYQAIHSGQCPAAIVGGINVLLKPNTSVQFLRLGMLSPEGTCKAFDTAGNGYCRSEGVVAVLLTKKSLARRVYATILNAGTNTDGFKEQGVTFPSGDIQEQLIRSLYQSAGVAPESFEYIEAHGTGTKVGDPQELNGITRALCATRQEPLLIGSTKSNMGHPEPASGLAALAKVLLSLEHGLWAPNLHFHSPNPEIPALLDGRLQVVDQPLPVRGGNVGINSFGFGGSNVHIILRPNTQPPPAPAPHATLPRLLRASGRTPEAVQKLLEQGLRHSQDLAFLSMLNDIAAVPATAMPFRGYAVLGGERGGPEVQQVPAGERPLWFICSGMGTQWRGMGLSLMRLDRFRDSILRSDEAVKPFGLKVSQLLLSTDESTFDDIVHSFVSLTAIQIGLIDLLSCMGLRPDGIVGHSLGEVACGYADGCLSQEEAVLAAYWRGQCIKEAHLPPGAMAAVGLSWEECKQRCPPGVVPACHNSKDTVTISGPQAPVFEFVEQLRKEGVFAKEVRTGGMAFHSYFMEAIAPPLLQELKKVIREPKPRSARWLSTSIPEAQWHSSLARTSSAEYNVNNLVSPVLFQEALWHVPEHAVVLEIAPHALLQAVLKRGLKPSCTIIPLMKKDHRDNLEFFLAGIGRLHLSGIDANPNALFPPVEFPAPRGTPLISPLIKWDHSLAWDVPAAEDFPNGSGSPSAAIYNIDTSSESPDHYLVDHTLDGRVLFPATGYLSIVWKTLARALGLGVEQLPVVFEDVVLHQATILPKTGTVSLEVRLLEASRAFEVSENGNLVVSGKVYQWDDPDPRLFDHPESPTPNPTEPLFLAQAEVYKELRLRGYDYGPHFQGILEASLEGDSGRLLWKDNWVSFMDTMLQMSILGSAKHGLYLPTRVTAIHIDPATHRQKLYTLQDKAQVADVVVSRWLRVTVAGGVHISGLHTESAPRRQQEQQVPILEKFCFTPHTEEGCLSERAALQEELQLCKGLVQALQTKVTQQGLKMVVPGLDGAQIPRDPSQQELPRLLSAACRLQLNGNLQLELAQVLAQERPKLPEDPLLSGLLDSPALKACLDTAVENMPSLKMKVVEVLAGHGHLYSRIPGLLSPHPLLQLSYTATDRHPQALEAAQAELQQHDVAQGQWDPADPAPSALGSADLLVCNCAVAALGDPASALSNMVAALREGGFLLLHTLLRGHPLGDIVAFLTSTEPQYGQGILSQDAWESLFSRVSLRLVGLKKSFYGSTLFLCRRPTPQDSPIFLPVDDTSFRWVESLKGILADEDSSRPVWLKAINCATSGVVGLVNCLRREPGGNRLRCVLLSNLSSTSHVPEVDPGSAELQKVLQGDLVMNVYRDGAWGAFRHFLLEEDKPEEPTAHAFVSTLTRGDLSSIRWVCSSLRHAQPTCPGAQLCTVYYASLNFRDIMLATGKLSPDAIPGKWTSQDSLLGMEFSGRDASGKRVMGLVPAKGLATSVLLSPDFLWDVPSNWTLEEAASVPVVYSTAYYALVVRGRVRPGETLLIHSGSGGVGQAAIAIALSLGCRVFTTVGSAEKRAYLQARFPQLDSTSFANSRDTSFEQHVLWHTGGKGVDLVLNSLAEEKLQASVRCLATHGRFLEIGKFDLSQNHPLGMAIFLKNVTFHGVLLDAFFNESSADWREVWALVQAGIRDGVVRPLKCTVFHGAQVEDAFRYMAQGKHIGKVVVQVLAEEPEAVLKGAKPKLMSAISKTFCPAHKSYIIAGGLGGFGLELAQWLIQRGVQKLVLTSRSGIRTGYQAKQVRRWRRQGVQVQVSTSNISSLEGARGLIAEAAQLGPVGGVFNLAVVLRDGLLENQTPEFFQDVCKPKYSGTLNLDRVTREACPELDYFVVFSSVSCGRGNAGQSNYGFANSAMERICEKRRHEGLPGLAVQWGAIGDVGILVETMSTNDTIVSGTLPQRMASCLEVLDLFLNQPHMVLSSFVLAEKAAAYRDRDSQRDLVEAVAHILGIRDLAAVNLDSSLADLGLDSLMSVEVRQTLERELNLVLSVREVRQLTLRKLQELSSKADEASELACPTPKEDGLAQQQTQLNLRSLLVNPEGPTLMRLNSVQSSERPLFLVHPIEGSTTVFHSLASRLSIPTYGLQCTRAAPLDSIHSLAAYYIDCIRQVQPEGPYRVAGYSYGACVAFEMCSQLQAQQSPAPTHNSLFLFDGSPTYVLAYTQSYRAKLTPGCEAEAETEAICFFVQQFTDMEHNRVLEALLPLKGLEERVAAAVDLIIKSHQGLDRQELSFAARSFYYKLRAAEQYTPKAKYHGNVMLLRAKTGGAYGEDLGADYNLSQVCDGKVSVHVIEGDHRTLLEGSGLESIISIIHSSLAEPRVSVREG

Fatty acid synthase [13] = biological target: T5, Fatty acid synthase; assay: inhibition of human FAS-TE enzyme activity – biochemical, endpoint fluorescence intensity, uHTS hits, dose response (AID 624327); format: functional;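 note: fluorescence from hydrolysis of an O-methyl fluorescein acyl ester substrate by the enzyme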
[14] = blockers of HIV-1 ZM109 envelope-driven cell-cell fusion – HeLa effector, CEM target cells, luciferase, cherry-pick, dose response (AID 652058); format: functional, cell-based;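 note: luciferase signal from HIV-1 Env mediated cell-cell fusion of effector and target cells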
[15] = biological target: Eukaryotic translation initiation factor 4E (Mus musculus, UniProt P63073); assay: blockers of eIF4G binding by eIF4E – biochemical, TR-FRET, dose response (AID 855); format: functional;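 note: potency for disrupting eIF4E binding to eIF4GI seen as loss of FRET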
Eukaryotic translation initiation factor 4E, sequence (P63073 whole entry): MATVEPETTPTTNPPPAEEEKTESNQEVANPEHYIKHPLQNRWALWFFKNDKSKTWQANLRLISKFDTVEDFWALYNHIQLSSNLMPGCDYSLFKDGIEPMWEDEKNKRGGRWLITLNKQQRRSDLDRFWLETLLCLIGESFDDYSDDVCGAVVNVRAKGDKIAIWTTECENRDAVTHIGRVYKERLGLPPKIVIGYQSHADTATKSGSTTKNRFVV

[16] = biological target: T6, Ubiquitin-conjugating enzyme E2 N (Homo sapiens, UniProt P61088); format: functional;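 note: Dose-response confirmation in a TR-FRET assay detecting UBC13-driven polyubiquitin chain formation, inhibition measured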
T6 sequence (P61088 whole entry): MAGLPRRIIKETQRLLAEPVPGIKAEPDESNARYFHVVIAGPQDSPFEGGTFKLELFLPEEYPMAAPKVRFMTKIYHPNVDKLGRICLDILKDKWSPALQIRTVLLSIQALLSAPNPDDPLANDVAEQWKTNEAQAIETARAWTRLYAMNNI

[17] = Luminescence Cell-Based Dose Retest to Confirm Inhibitors of Cancer Stem Cells. [Related pubchem assays (depositor defined):AID2717, AID2721]; format: functional; settings: Homo sapiens

Structure (SMILES): Cc1ccc(S(=O)(=O)Nc2cccc3c2O[C@H](CN(C)Cc2ccc(C(=O)Nc4ccccc4N)cc2)[C@H](C)CN([C@H](C)CO)C3=O)cc1
AC50 [1]: 2.26 µM (active)

AC50 [2]: 0.905 µM (active)
Structure (SMILES): NNc1nc2c(Cl)ccc(Cl)c2s1

Structure (SMILES): COc1ccc(CCNC(=O)COC(=O)c2cc(Cl)nc(Cl)c2)cc1
IC50 (Steroidogenic factor 1): 3.23 µM (active)
IC50 [3]: 35.9 µM (inactive)
IC50 [4]: 8.32 µM (active)

Structure (SMILES): CN(C)c1ccc(NC(=O)C2C3C=CC(C3)C2C(=O)O)cc1 (stereo unspecified)
EC50 [5]: > 38 µM (not active)
EC50 [6]: > 160 µM (inactive)

IC50 [7]: 11.7 µM (active)
Structure (SMILES): CCn1cc(C(=O)O)c(=O)c2cc(F)c(N3CCN(C(=S)NC(=O)c4ccc(F)cc4)CC3)cc21

Structure (SMILES): CCCN1CCc2cc(O)cc3c2[C@H]1Cc1ccc(O)c(O)c1-3
IC50 (Large T antigen): 24 µM (active)
EC50 [8]: > 300 µM (inconclusive)
EC50 [9]: > 300 µM (inconclusive)
IC50 [10]: > 80 µM (inactive)

Structure (SMILES): C[C@@H]1CCCCO[C@@H](CN(C)Cc2ccc(C(F)(F)F)cc2)[C@@H](C)CN([C@H](C)CO)C(=O)c2cc(NS(=O)(=O)c3ccc(Cl)cc3)ccc2O1
AC50 [1]: 3.01 µM (active)

EC50 [11]: 6.68 µM (active)
Structure (SMILES): CCOC(=O)CSc1nc2ccccc2c(=O)n1CC1CCCC1

IC50 (Fatty acid synthase [12]): 16.8 µM (active)
IC50 (Fatty acid synthase [13]): 9.52 µM (active)
Structure (SMILES): CCn1c(=S)sc2c(=O)n(CC(=O)NC(C)CCc3ccccc3)c(C)nc21 (stereo unspecified)

Structure (SMILES): CCc1ccc(C(=O)CN2C(=O)NC(C)(c3ccc(C)cc3)C2=O)cc1 (stereo unspecified)
AC50 [14]: 69 µM (active)

Structure (SMILES): CCOc1ccc(OCCN2C(=O)NC(Cc3c[nH]c4ccccc34)C2=O)cc1 (stereo unspecified)
IC50 (Steroidogenic factor 1): 5.29 µM (active)
IC50 [3]: 35.9 µM (inactive)
IC50 [4]: 4.18 µM (active)

Structure (SMILES): CC(=O)Nc1cc(-c2ccc(S(C)(=O)=O)cc2)cn2c(-c3ccc(F)cc3)cnc12
IC50 (Steroidogenic factor 1): 3.11 µM (active)
IC50 [3]: 23.7 µM (inactive)
IC50 [4]: 8.24 µM (active)

EC50 [11]: 7.5 µM (active)
Structure (SMILES): Cc1ccn2cc(CCNC(=O)c3ccc(Br)o3)nc2c1

Structure (SMILES): C=CCn1c(O)c(N=NC(=S)Nc2ccc(OC)cc2)c2ccccc21
EC50 [6]: > 150 µM (inactive)

IC50 (Fatty acid synthase [12]): 6.9 µM (active)
IC50 [15]: 50 µM (inactive)
IC50 (Fatty acid synthase [13]): 5.24 µM (active)
Structure (SMILES): CC1CCN(C(=O)c2ccc3c(Cl)c4c(nc3c2)CCCC4)CC1

AC50 [2]: 0.875 µM (active)
Structure (SMILES): O=C(Nc1cccc(-c2nn[nH]n2)c1)c1ccc(Br)s1

Structure (SMILES): CC(=O)O[C@H]1[C@@H](O)[C@H](O)[C@H](Oc2c(O)c(C)c3c4c2[C@@H](C)CC[C@@H]4[C@@H](C)C[C@H]3C=C(C)C)O[C@H]1C
IC50 [16]: > 20 µM (inactive)
AC50 [17]: 3.19 µM (active)
